Test results as given in patent US5296498A, “Guanidine compounds” (Adir et Compagnie, priority 1990, dated 1994).
Counter-ions that a name gives are not always drawn.

Columns and labels:
5-HT1A receptors = biological target: T1, 5-HT1A receptors (Homo sapiens, UniProt P08908); experiment: In vitro affinity test for 5-HT1A receptors; details: conventional binding technique, read-out: Ki with respect to 5-HT1A receptors
T1 sequence (P08908 1-422): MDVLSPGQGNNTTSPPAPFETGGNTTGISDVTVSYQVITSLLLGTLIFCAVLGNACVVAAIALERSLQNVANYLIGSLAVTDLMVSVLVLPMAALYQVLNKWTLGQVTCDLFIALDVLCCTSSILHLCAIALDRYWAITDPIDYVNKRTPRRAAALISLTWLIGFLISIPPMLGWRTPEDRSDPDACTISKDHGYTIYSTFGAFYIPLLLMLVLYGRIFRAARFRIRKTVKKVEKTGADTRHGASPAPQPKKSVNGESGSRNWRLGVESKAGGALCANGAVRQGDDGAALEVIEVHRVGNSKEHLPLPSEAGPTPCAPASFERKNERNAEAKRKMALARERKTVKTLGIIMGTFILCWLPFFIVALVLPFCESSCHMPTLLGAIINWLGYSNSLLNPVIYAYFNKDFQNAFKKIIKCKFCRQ
Protocol: (§1) EXAMPLE 8: In vitro affinity test for endazoline, α1 and α2 and 5-HT receptors
(§2) The in vitro affinity tests for endazoline receptors were carried out according to a technique described by A. Parini et al. (Biochem. and Biophys. Res. Comm. 147(3), 1055, 1987), and according to conventional binding techniques for the other receptors.

5-HT3 receptors = biological target: T2, 5-HT3 receptors (Homo sapiens, UniProt P46098); experiment: In vitro affinity test for 5-HT3 receptors; details: conventional binding technique, read-out: Ki with respect to 5-HT3 receptors
T2 sequence (P46098 24-478): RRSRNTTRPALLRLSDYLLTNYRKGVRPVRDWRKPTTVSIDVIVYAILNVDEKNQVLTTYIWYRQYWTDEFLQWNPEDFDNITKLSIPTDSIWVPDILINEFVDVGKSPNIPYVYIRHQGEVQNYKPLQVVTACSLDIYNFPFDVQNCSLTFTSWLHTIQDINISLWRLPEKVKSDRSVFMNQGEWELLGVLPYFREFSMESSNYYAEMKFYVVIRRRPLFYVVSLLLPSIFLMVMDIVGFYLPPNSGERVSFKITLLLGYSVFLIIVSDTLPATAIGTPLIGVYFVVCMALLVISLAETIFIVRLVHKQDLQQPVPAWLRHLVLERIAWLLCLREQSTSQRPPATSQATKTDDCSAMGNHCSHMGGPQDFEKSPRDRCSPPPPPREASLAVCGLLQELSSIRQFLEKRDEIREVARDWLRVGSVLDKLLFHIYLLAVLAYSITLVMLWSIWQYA
Protocol: as §1, §2

5-HT1B receptors = 5-HT1B receptors (Rattus norvegicus, UniProt P28564); experiment: In vitro affinity test for 5-HT1B receptors; details: conventional binding technique, read-out: Ki with respect to 5-HT1B receptors
Protocol: as §1, §2

5 HT2 receptors = 5 HT2 receptors (Homo sapiens, UniProt P28223); experiment: In vitro affinity test for 5-HT2 receptors; details: conventional binding technique, read-out: Ki with respect to 5 HT2 receptors
Protocol: as §1, §2

5-HT1B receptors, sequence (P28564 whole entry): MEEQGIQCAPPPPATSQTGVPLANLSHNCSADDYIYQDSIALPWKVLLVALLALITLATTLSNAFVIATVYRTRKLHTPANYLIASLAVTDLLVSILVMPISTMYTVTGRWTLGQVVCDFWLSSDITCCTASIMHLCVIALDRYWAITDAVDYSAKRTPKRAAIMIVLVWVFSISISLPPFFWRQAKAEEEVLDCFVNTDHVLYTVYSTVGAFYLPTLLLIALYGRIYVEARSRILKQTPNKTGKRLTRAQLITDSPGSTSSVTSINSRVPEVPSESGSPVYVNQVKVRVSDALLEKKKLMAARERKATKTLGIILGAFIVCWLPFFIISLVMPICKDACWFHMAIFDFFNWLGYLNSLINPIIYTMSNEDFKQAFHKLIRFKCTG
5 HT2 receptors, sequence (P28223 whole entry): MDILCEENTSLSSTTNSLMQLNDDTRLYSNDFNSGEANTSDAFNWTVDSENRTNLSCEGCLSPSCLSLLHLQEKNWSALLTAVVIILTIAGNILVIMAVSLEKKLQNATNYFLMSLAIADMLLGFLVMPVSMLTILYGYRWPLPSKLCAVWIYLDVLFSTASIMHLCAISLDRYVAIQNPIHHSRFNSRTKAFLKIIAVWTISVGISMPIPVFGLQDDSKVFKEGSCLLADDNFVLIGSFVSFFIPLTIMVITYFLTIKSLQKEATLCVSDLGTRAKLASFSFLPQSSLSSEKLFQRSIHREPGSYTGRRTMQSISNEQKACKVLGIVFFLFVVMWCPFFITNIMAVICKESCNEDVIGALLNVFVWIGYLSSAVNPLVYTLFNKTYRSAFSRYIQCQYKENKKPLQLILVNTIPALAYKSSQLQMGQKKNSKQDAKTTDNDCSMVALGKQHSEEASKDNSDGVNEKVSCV

Ki (5-HT1A receptors): ~10 µM | Ki (5-HT3 receptors): ~2 µM | Ki (5-HT1B receptors): ~100 µM | Ki (5 HT2 receptors): ~20 µM
SMILES: N=C(N)NN=CC(C1CC1)C1CC1 [Example 2, (2,2-Dicyclopropylethylidene)aminoguanidine hydrochloride]
